The supplement of paper PMC13207355
Where a name gives a salt, the structure may show the parent alone.

What was measured:
Conditions in all cases: exposure time: 72 h
[1] = system: E13 (patient-derived glioblastoma stem cells of classical subtype); experiment: surviving fraction (nuclei count normalised to DMSO); higher = more cells surviving (less toxic)
[2] = system: E21 (patient-derived glioblastoma stem cells of mesenchymal subtype); experiment: as above
[3] = system: E28 (patient-derived glioblastoma stem cells of classical subtype); experiment: as above
[4] = system: E31 (patient-derived glioblastoma stem cells of proneural subtype); experiment: as above
[5] = system: E34 (patient-derived glioblastoma stem cells of proneural subtype); experiment: as above
[6] = system: E57 (patient-derived glioblastoma stem cells of mesenchymal subtype); experiment: as above
[7] = system: FT3469 (normal neural stem cell line); experiment: as above
[8] = system: E13; experiment: phenotypic distance (Euclidean, principal components) from DMSO controls (arbitrary units); higher = stronger morphological change
[9] = system: E21; experiment: as above
[10] = system: E28; experiment: as above
[11] = system: E31; experiment: as above
[12] = system: E34; experiment: as above
[13] = system: E57; experiment: as above
[14] = system: FT3469; experiment: as above
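Throughout, for phenotypic distance (Euclidean, principal components) from DMSO controls: cell Painting imaging in 384-well plates, CellProfiler features reduced to at least 20 principal components, Euclidean distance versus same-plate DMSO vehicle wells (0.1% v/v), median over six images per well.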
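Throughout, for surviving fraction (nuclei count normalised to DMSO): nuclei counted by high-content imaging of Hoechst-stained cells in laminin-coated 384-well plates, relative to 0.1% DMSO vehicle wells, with staurosporine as cell-death control.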

Nc1ccc(-c2ccc3ncc4ccc(=O)n(-c5cccc(C(F)(F)F)c5)c4c3c2)cn1 [Torin2]
Conditions	phenotypic distance	surviving fraction
[1], 4.1 nM	–	0.816
[1], 12.3 nM	–	0.728
[1], 37 nM	–	0.628
[1], 111.1 nM	–	0.537
[1], 333.3 nM	–	0.467
[1], 1000 nM	–	0.434
[1], 3000 nM	–	0.387
[2], 4.1 nM	–	0.939
[2], 12.3 nM	–	0.836
[2], 37 nM	–	0.924
[2], 111.1 nM	–	0.595
[2], 333.3 nM	–	0.326
[2], 1000 nM	–	0.31
[2], 3000 nM	–	0.252
[3], 4.1 nM	–	0.829
[3], 12.3 nM	–	0.687
[3], 37 nM	–	0.705
[3], 111.1 nM	–	0.526
[3], 333.3 nM	–	0.534
[3], 1000 nM	–	0.417
[3], 3000 nM	–	0.324
[4], 4.1 nM	–	0.743
[4], 12.3 nM	–	0.669
[4], 37 nM	–	0.612
[4], 111.1 nM	–	0.386
[4], 333.3 nM	–	0.26
[4], 1000 nM	–	0.234
[4], 3000 nM	–	0.102
[5], 4.1 nM	–	0.986
[5], 12.3 nM	–	0.84
[5], 37 nM	–	0.809
[5], 111.1 nM	–	0.796
[5], 333.3 nM	–	0.623
[5], 1000 nM	–	0.471
[5], 3000 nM	–	0.424
[6], 4.1 nM	–	0.892
[6], 12.3 nM	–	0.74
[6], 37 nM	–	0.659
[6], 111.1 nM	–	0.548
[6], 333.3 nM	–	0.424
[6], 1000 nM	–	0.302
[6], 3000 nM	–	0.148
[7], 4.1 nM	–	0.978
[7], 12.3 nM	–	0.925
[7], 37 nM	–	0.73
[7], 111.1 nM	–	0.685
[7], 333.3 nM	–	0.769
[7], 1000 nM	–	0.685
[7], 3000 nM	–	0.527
[8], 4.1 nM	1.33	–
[8], 12.3 nM	2.1	–
[8], 37 nM	2.69	–
[8], 111.1 nM	3.25	–
[8], 333.3 nM	4.2	–
[8], 1000 nM	4.27	–
[8], 3000 nM	4.72	–
[9], 4.1 nM	1.71	–
[9], 12.3 nM	2.07	–
[9], 37 nM	2.44	–
[9], 111.1 nM	3.36	–
[9], 333.3 nM	6.2	–
[9], 1000 nM	4.67	–
[9], 3000 nM	5.09	–
[10], 4.1 nM	1.23	–
[10], 12.3 nM	2.35	–
[10], 37 nM	2.78	–
[10], 111.1 nM	3.06	–
[10], 333.3 nM	2.87	–
[10], 1000 nM	3.67	–
[10], 3000 nM	3.52	–
[11], 4.1 nM	1.91	–
[11], 12.3 nM	2.08	–
[11], 37 nM	3.12	–
[11], 111.1 nM	4.26	–
[11], 333.3 nM	5.33	–
[11], 1000 nM	5.33	–
[11], 3000 nM	6.15	–
[12], 4.1 nM	1.56	–
[12], 12.3 nM	2.42	–
[12], 37 nM	2.76	–
[12], 111.1 nM	3.31	–
[12], 333.3 nM	3.09	–
[12], 1000 nM	2.85	–
[12], 3000 nM	3.68	–
[13], 4.1 nM	1.19	–
[13], 12.3 nM	1.65	–
[13], 37 nM	2.17	–
[13], 111.1 nM	3.47	–
[13], 333.3 nM	4.27	–
[13], 1000 nM	5.35	–
[13], 3000 nM	8.06	–
[14], 4.1 nM	1.78	–
[14], 12.3 nM	2	–
[14], 37 nM	2.85	–
[14], 111.1 nM	2.71	–
[14], 333.3 nM	3.04	–
[14], 1000 nM	2.81	–
[14], 3000 nM	3.65	–

CCC1=C[C@@H]2CN(C1)Cc1c([nH]c3ccccc13)[C@@](C(=O)OC)(c1cc3c(cc1OC)N(C)[C@H]1[C@@](O)(C(=O)OC)[C@H](OC(C)=O)[C@]4(CC)C=CCN5CC[C@]31[C@@H]54)C2 [Vinorelbine Tartrate]
Conditions	phenotypic distance	surviving fraction
[1], 4.1 nM	–	0.863
[1], 12.3 nM	–	0.903
[1], 37 nM	–	0.916
[1], 111.1 nM	–	0.907
[1], 333.3 nM	–	0.82
[1], 1000 nM	–	0.371
[1], 3000 nM	–	0.246
[2], 4.1 nM	–	0.868
[2], 12.3 nM	–	0.894
[2], 37 nM	–	0.926
[2], 111.1 nM	–	0.761
[2], 333.3 nM	–	0.586
[2], 1000 nM	–	0.169
[2], 3000 nM	–	0.1
[3], 4.1 nM	–	0.904
[3], 12.3 nM	–	0.815
[3], 37 nM	–	0.801
[3], 111.1 nM	–	0.749
[3], 333.3 nM	–	0.609
[3], 1000 nM	–	0.375
[3], 3000 nM	–	0.353
[4], 4.1 nM	–	0.794
[4], 12.3 nM	–	0.911
[4], 37 nM	–	0.749
[4], 111.1 nM	–	0.649
[4], 333.3 nM	–	0.37
[4], 1000 nM	–	0.126
[4], 3000 nM	–	0.0917
[5], 4.1 nM	–	1.05
[5], 12.3 nM	–	0.954
[5], 37 nM	–	0.856
[5], 111.1 nM	–	0.97
[5], 333.3 nM	–	0.822
[5], 1000 nM	–	0.57
[5], 3000 nM	–	0.402
[6], 4.1 nM	–	0.969
[6], 12.3 nM	–	1.04
[6], 37 nM	–	1.04
[6], 111.1 nM	–	1.02
[6], 333.3 nM	–	0.899
[6], 1000 nM	–	0.447
[6], 3000 nM	–	0.102
[7], 4.1 nM	–	0.953
[7], 12.3 nM	–	0.829
[7], 37 nM	–	0.834
[7], 111.1 nM	–	0.827
[7], 333.3 nM	–	0.569
[7], 1000 nM	–	0.553
[7], 3000 nM	–	0.56
[8], 4.1 nM	1.1	–
[8], 12.3 nM	1.18	–
[8], 37 nM	1.26	–
[8], 111.1 nM	1.7	–
[8], 333.3 nM	2.71	–
[8], 1000 nM	4.6	–
[8], 3000 nM	6.33	–
[9], 4.1 nM	1.06	–
[9], 12.3 nM	1.08	–
[9], 37 nM	1.45	–
[9], 111.1 nM	2.33	–
[9], 333.3 nM	4.36	–
[9], 1000 nM	7	–
[9], 3000 nM	8.49	–
[10], 4.1 nM	0.584	–
[10], 12.3 nM	0.83	–
[10], 37 nM	0.727	–
[10], 111.1 nM	1.31	–
[10], 333.3 nM	2.18	–
[10], 1000 nM	2.7	–
[10], 3000 nM	3.22	–
[11], 4.1 nM	0.666	–
[11], 12.3 nM	0.627	–
[11], 37 nM	0.856	–
[11], 111.1 nM	1.44	–
[11], 333.3 nM	3.01	–
[11], 1000 nM	4.58	–
[11], 3000 nM	5.73	–
[12], 4.1 nM	0.476	–
[12], 12.3 nM	0.944	–
[12], 37 nM	0.78	–
[12], 111.1 nM	1.01	–
[12], 333.3 nM	1.48	–
[12], 1000 nM	2.84	–
[12], 3000 nM	4.02	–
[13], 4.1 nM	0.512	–
[13], 12.3 nM	0.688	–
[13], 37 nM	0.822	–
[13], 111.1 nM	0.746	–
[13], 333.3 nM	3.9	–
[13], 1000 nM	4.81	–
[13], 3000 nM	6.16	–
[14], 4.1 nM	0.854	–
[14], 12.3 nM	1.01	–
[14], 37 nM	1.01	–
[14], 111.1 nM	1.12	–
[14], 333.3 nM	2.43	–
[14], 1000 nM	4.88	–
[14], 3000 nM	3.13	–

CN1C(=O)CC(c2ccccc2)C1=O (centres undefined) [Phensuximide]
Conditions	phenotypic distance	surviving fraction
[1], 4.1 nM	–	0.921
[1], 12.3 nM	–	0.916
[1], 37 nM	–	1.01
[1], 111.1 nM	–	1
[1], 333.3 nM	–	1
[1], 1000 nM	–	1.06
[1], 3000 nM	–	0.927
[2], 4.1 nM	–	0.998
[2], 12.3 nM	–	0.996
[2], 37 nM	–	1.03
[2], 111.1 nM	–	1.04
[2], 333.3 nM	–	1
[2], 1000 nM	–	1.09
[2], 3000 nM	–	0.963
[3], 4.1 nM	–	1.07
[3], 12.3 nM	–	1.03
[3], 37 nM	–	1.15
[3], 111.1 nM	–	1.09
[3], 333.3 nM	–	1
[3], 1000 nM	–	0.995
[3], 3000 nM	–	1.2
[4], 4.1 nM	–	1.08
[4], 12.3 nM	–	1.07
[4], 37 nM	–	1.1
[4], 111.1 nM	–	1.01
[4], 333.3 nM	–	1.14
[4], 1000 nM	–	1.13
[4], 3000 nM	–	0.991
[5], 4.1 nM	–	0.918
[5], 12.3 nM	–	1.14
[5], 37 nM	–	0.912
[5], 111.1 nM	–	0.81
[5], 333.3 nM	–	1.16
[5], 1000 nM	–	1.1
[5], 3000 nM	–	1.1
[6], 4.1 nM	–	1.02
[6], 12.3 nM	–	1.06
[6], 37 nM	–	1.05
[6], 111.1 nM	–	1.03
[6], 333.3 nM	–	1.05
[6], 1000 nM	–	1.04
[6], 3000 nM	–	0.978
[7], 4.1 nM	–	0.946
[7], 12.3 nM	–	0.989
[7], 37 nM	–	1
[7], 111.1 nM	–	1
[7], 333.3 nM	–	0.985
[7], 1000 nM	–	1.01
[7], 3000 nM	–	1.15
[8], 4.1 nM	1.82	–
[8], 12.3 nM	4.3	–
[8], 37 nM	2.63	–
[8], 111.1 nM	0.682	–
[8], 333.3 nM	0.274	–
[8], 1000 nM	0.544	–
[8], 3000 nM	0.597	–
[9], 4.1 nM	0.59	–
[9], 12.3 nM	0.489	–
[9], 37 nM	0.352	–
[9], 111.1 nM	0.519	–
[9], 333.3 nM	0.385	–
[9], 1000 nM	0.686	–
[9], 3000 nM	0.387	–
[10], 4.1 nM	0.664	–
[10], 12.3 nM	0.467	–
[10], 37 nM	0.453	–
[10], 111.1 nM	0.603	–
[10], 333.3 nM	0.45	–
[10], 1000 nM	0.513	–
[10], 3000 nM	0.714	–
[11], 4.1 nM	0.79	–
[11], 12.3 nM	0.39	–
[11], 37 nM	0.726	–
[11], 111.1 nM	0.491	–
[11], 333.3 nM	0.604	–
[11], 1000 nM	0.913	–
[11], 3000 nM	0.717	–
[12], 4.1 nM	0.49	–
[12], 12.3 nM	0.73	–
[12], 37 nM	0.867	–
[12], 111.1 nM	0.657	–
[12], 333.3 nM	1.01	–
[12], 1000 nM	0.819	–
[12], 3000 nM	0.663	–
[13], 4.1 nM	0.764	–
[13], 12.3 nM	0.516	–
[13], 37 nM	0.543	–
[13], 111.1 nM	0.342	–
[13], 333.3 nM	0.878	–
[13], 1000 nM	0.346	–
[13], 3000 nM	0.811	–
[14], 4.1 nM	1.58	–
[14], 12.3 nM	0.664	–
[14], 37 nM	0.821	–
[14], 111.1 nM	0.515	–
[14], 333.3 nM	0.721	–
[14], 1000 nM	0.254	–
[14], 3000 nM	0.402	–
